pIC50: −log10 of the molar value.
The compounds below were run against human TrkA (Homo sapiens (Human), UniProt P04629) (assay: Human TrkA inhibition assay (Test Example 2)). Settings: Table 155, human TrkA inhibition; read-out: IC50.
Format: biochemical
How it was run: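 Recombinant TrkA (1 nmol/L) was preincubated 15 min at room temperature with compound in HEPES/MgCl2/DTT buffer, then reacted with FL-peptide 27 (1.5 μmol/L) and ATP (500 μmol/L) for 120 min at 37 °C. After EDTA stop, substrate phosphorylation was read by microfluidic mobility shift. IC50 came from logistic regression over 3-fold dilution series.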

human TrkA, sequence (P04629 440-796): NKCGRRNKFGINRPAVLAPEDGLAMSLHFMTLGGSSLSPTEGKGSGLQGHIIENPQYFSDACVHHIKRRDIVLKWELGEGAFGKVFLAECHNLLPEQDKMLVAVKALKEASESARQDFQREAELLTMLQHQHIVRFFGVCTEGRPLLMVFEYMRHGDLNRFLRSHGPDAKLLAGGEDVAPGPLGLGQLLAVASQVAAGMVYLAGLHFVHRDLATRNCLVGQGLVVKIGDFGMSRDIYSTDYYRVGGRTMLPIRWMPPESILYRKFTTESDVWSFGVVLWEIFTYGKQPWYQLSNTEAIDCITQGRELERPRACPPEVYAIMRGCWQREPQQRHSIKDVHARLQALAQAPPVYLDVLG

Row | pIC50 | SMILES
1 | < 6.00 | COCCN1C[C@H](NC(=O)Nc2c(C)c(-c3cnc(C)nc3)nn2-c2ccccc2)[C@@H](c2cc(F)nc(F)c2)O1 [Compound I-362]
2 | > 7.00 | CNC(=O)c1cc(-c2nn(-c3ccccc3)c(NC(=O)N[C@@H]3CN(CCOC)O[C@H]3c3ccc(F)c(F)c3)c2C)cnc1OC [Compound I-391]
3 | > 7.00 | COCCN1C[C@@H](NC(=O)Nc2c(C)c(-c3cnc(OC)nc3)nn2-c2ccccc2)[C@H](c2ccc(F)c(F)c2)O1 [Compound I-407]
4 | > 7.00 | COCCN1C[C@@H](NC(=O)Nc2c(C)c(-c3cccnc3)nn2-c2ccccc2)[C@H](c2ccc(F)c(F)c2)O1 [Compound I-449]
5 | > 7.00 | COCCN1C[C@@H](NC(=O)Nc2c(C)c(-c3ccc4nc(CO)cn4c3)nn2-c2ccccc2)[C@H](c2ccc(F)c(F)c2)O1 [Compound I-451]
6 | > 7.00 | COCCN1C[C@@H](NC(=O)Nc2c(C)c(-c3ccc4nccn4c3)nn2-c2ccccc2)[C@H](c2ccc(F)c(F)c2)O1 [Compound I-460]
7 | > 7.00 | COCCN1C[C@@H](NC(=O)Nc2c(C)c(-c3ccn4ccnc4c3)nn2-c2ccccc2)[C@H](c2ccc(F)c(F)c2)O1 [Compound I-461]
8 | > 7.00 | COCCN1C[C@@H](NC(=O)Nc2c(C)c(-c3cnc4c(c3)OCCO4)nn2-c2ccccc2)[C@H](c2ccc(F)c(F)c2)O1 [Compound I-463]
9 | > 7.00 | COCCN1C[C@@H](NC(=O)Nc2c(C)c(-c3cnc(OC4CCN(C)CC4)nc3)nn2-c2ccccc2)[C@H](c2ccc(F)c(F)c2)O1 [Compound I-464]
10 | > 7.00 | COCCN1C[C@@H](NC(=O)Nc2c(C)c(-c3ccncc3)nn2-c2ccccc2)[C@H](c2ccc(F)c(F)c2)O1 [Compound I-466]
11 | > 7.00 | COCCN1C[C@@H](NC(=O)Nc2c(C)c(-c3cnc(N4CCN(C(=O)OCc5ccccc5)CC4)nc3)nn2-c2ccccc2)[C@H](c2ccc(F)c(F)c2)O1 [Compound I-475]
12 | < 6.00 | COCCN1C[C@@H](NC(=O)Nc2c(C)c(-c3cnn(C)c3)nn2Cc2ccccc2)[C@H](c2ccc(F)c(F)c2)O1 [Compound I-492]
13 | < 6.00 | COCCN1C[C@@H](NC(=O)Nc2c(C)c(-c3cnn(C)c3)nn2CCO)[C@H](c2ccc(F)c(F)c2)O1 [Compound I-493]
14 | > 7.00 | COCCN1C[C@@H](NC(=O)Nc2c(C)c(-c3ccn(C)c(=O)c3)nn2-c2ccccc2)[C@H](c2ccc(F)c(F)c2)O1 [Compound I-497]
15 | > 7.00 | COCCN1C[C@@H](NC(=O)Nc2c(C)c(OCC3CN(C(C)=O)CCO3)nn2-c2ccccc2)[C@H](c2ccnc(F)c2)O1 (stereo partly drawn) [Compound I-504]
16 | > 7.00 | COCCN1C[C@@H](NC(=O)Nc2c(C)c(-c3cnn(C)c3)nn2-c2cccc(F)c2)[C@H](c2ccc(F)c(F)c2)O1 [Compound I-510]

Second part, the compound before the results:

Row | SMILES | pIC50
17 | COCCN1C[C@@H](NC(=O)Nc2c(C)c(N3CCN(C)C(=O)C3)nn2-c2ccccc2)[C@H](c2ccc(F)cc2)O1 [Compound I-345] | > 7.00
18 | COCCN1C[C@@H](NC(=O)Nc2c(C)c(-c3ccc(N4CCC(NC(C)=O)C4)nc3)nn2-c2ccccc2)[C@H](c2ccnc(F)c2)O1 (stereo partly drawn) [Compound I-349] | > 7.00
19 | COCCN1C[C@@H](NC(=O)Nc2c(C)c(-c3cnc4c(c3)CCC4O)nn2-c2ccccc2)[C@H](c2ccnc(F)c2)O1 (stereo partly drawn) [Compound I-353] | > 7.00
20 | COCCN1C[C@@H](NC(=O)Nc2c(C)c(-c3cnc(C)nc3)nn2-c2ccccc2)[C@H](c2cnc(F)c(F)c2)O1 [Compound I-358] | > 7.00
21 | COCCN1C[C@@H](NC(=O)Nc2c(C)c(-c3ccc4nc(C)nn4c3)nn2-c2ccccc2)[C@H](c2ccnc(F)c2)O1 [Compound I-359] | > 7.00
22 | COCCN1C[C@@H](NC(=O)Nc2c(C)c(-c3cnc(C)nc3)nn2-c2ccccc2)[C@H](c2cc(F)nc(F)c2)O1 [Compound I-361] | > 7.00
23 | COCCN1C[C@@H](NC(=O)Nc2c(C)c(-c3ccc4nc(C)nn4c3)nn2-c2ccccc2)[C@H](c2cnc(F)c(F)c2)O1 [Compound I-363] | > 7.00
24 | COCCN1C[C@@H](NC(=O)Nc2c(C)c(-c3cnc4c(c3)CN(C)C4=O)nn2-c2ccccc2)[C@H](c2ccc(F)cc2)O1 [Compound I-411] | > 7.00
25 | COCCN1C[C@@H](NC(=O)Nc2c(C)c(-c3cnc4c(cnn4C)c3)nn2-c2ccccc2)[C@H](c2cnc(F)c(F)c2)O1 [Compound I-417] | > 7.00
26 | COCCN1C[C@@H](NC(=O)Nc2c(C)c(-c3cnc(N4CC5(COC5)C4)nc3)nn2-c2ccccc2)[C@H](c2cnc(F)c(F)c2)O1 [Compound I-430] | > 7.00
27 | COCCN1C[C@@H](NC(=O)Nc2c(C)c(-c3cnn(C)c3)nn2-c2ccccn2)[C@H](c2ccc(F)c(F)c2)O1 [Compound I-447] | > 7.00
28 | COCCN1C[C@@H](NC(=O)Nc2c(C)c(-c3cccc(N(C)C)c3)nn2-c2ccccc2)[C@H](c2ccc(F)c(F)c2)O1 [Compound I-450] | > 7.00
29 | COCCN1C[C@@H](NC(=O)Nc2c(C)c(-c3cnc4c(cnn4C)c3)nn2-c2ccccc2)[C@H](c2ccc(F)c(F)c2)O1 [Compound I-473] | > 7.00
30 | COCCN1C[C@@H](NC(=O)Nc2c(C)c(-c3cnn(C)c3)nn2CCN(C)C)[C@H](c2ccc(F)c(F)c2)O1 [Compound I-494] | < 6.00
31 | COCCN1C[C@@H](NC(=O)Nc2c(C)c(-c3ccc(=O)n(C)c3)nn2-c2ccccc2)[C@H](c2ccc(F)c(F)c2)O1 [Compound I-498] | > 7.00
32 | COCCN1C[C@@H](NC(=O)Nc2c(C)c(OCC3CN(C(=O)OC(C)(C)C)CCO3)nn2-c2ccccc2)[C@H](c2ccnc(F)c2)O1 (stereo partly drawn) [Compound I-499] | > 7.00
33 | COCCN1C[C@@H](NC(=O)Nc2c(C)c(OCC3CNCCO3)nn2-c2ccccc2)[C@H](c2ccnc(F)c2)O1 (stereo partly drawn) [Compound I-500] | > 7.00
34 | COCCN1C[C@@H](NC(=O)Nc2c(C)c(OCC3CN(C)CCO3)nn2-c2ccccc2)[C@H](c2ccnc(F)c2)O1 (stereo partly drawn) [Compound I-505] | > 7.00
35 | COCCN1C[C@@H](NC(=O)Nc2c(C)c(-c3cnc(COC)nc3)nn2-c2ccccc2)[C@H](c2cnc(F)c(F)c2)O1 [Compound I-512] | > 7.00

Same assay, conditions: Table 156, human TrkA inhibition; read-out: IC50

Row | pIC50 | SMILES
36 | > 7.00 | CCOc1nn(-c2ccccc2)c(NC(=O)N[C@@H]2CN(CCOC)O[C@H]2c2ccc(F)c(F)c2)c1C [Compound I-519]
37 | > 7.00 | COCCN1C[C@@H](NC(=O)Nc2c(C)c(C)nn2-c2ccccc2)[C@H](c2cnc(F)c(F)c2)O1 [Compound I-520]
38 | < 6.00 | CCN1C[C@H](NC(=O)Nc2c(C)c(OCC3CCN(C)CC3)nn2-c2ccccc2)[C@@H](c2ccc(F)c(F)c2)O1 [Compound I-535]
39 | > 7.00 | CCN1C[C@@H](NC(=O)Nc2c(C)c(OCC3CNCCO3)nn2-c2ccccc2)[C@H](c2ccc(F)c(F)c2)O1 (stereo partly drawn) [Compound I-537]
40 | > 7.00 | CCN1C[C@@H](NC(=O)Nc2c(C)c(OCC3CN(C(C)=O)CCO3)nn2-c2ccccc2)[C@H](c2ccc(F)c(F)c2)O1 (stereo partly drawn) [Compound I-546]
41 | > 7.00 | CCN1C[C@@H](NC(=O)Nc2c(C)c(OCC3CN(C)CCO3)nn2-c2ccccc2)[C@H](c2ccc(F)c(F)c2)O1 (stereo partly drawn) [Compound I-548]
42 | > 7.00 | COCC[C@@H]1C[C@@H](NC(=O)Nc2c(C)c(-c3cnc(N4CC(OC)C4)nc3)nn2-c2ccccc2)[C@H](c2ccnc(F)c2)O1 [Compound I-553]

The remaining lines, values behind:

Row | SMILES | pIC50
43 | COCCN1C[C@@H](NC(=O)Nc2c(C)c(-c3cnc(N4CC5CC(C4)O5)nc3)nn2-c2ccccc2)[C@H](c2cnc(F)c(F)c2)O1 [Compound I-514] | > 7.00
44 | COCCN1C[C@@H](NC(=O)Nc2c(C)c(-c3ccc(OC)nc3)nn2-c2ccccc2)[C@H](c2ccc(F)c(F)c2)O1 [Compound I-516] | > 7.00
45 | COCCN1C[C@@H](NC(=O)Nc2c(C)c(C)nn2-c2ccccc2)[C@H](c2ccc(F)c(F)c2)O1 [Compound I-518] | > 7.00
46 | COCCN1C[C@@H](NC(=O)Nc2c(C)c(C)nn2-c2ccccc2)[C@H](c2ccnc(F)c2)O1 [Compound I-521] | > 7.00
47 | COCCN1C[C@@H](NC(=O)Nc2c(C)c(-c3ccc(COC(C)=O)nc3)nn2-c2ccccc2)[C@H](c2ccc(F)c(F)c2)O1 [Compound I-531] | > 7.00
48 | COCCN1C[C@@H](NC(=O)Nc2c(C)c(-c3ccc(CO)nc3)nn2-c2ccccc2)[C@H](c2ccc(F)c(F)c2)O1 [Compound I-533] | > 7.00
49 | COCCN1C[C@@H](NC(=O)Nc2c(C)c(-c3ccc(C)nc3)nn2-c2ccccc2)[C@H](c2ccc(F)c(F)c2)O1 [Compound I-556] | > 7.00
50 | COCCN1C[C@@H](NC(=O)Nc2c(C)c(-c3ccnc(C(=O)OC)c3)nn2-c2ccccc2)[C@H](c2ccc(F)c(F)c2)O1 [Compound I-557] | > 7.00

Same assay, conditions: human TrkA 1 nmol/L, ATP 500 μmol/L, 120 min at 37° C.; read-out: IC50 values (TrkA phosphorylation inhibition)

Row | pIC50 | SMILES
51 | 9.01 | COCCN1C[C@@H](NC(=O)Nc2c(C)c(N3CCN(C)C(=O)C3)nn2-c2ccccc2)[C@H](c2ccc(F)c(F)c2)O1 [Compound I-344]
52 | 8.89 | COCCN1C[C@@H](NC(=O)Nc2c(C)c(-c3ccc(OC)nc3)nn2-c2ccccc2)[C@H](c2ccnc(F)c2)O1 [Compound I-509]
53 | 8.40 | CCN1C[C@@H](NC(=O)Nc2c(C)c(OCC3CCN(C)CC3)nn2-c2ccccc2)[C@H](c2ccc(F)c(F)c2)O1 [Compound I-536]
54 | 8.77 | COCCN1C[C@@H](NC(=O)Nc2c(C)c(OCCCN(C)C)nn2-c2ccccc2)[C@H](c2ccc(F)c(F)c2)O1 [Compound I-552]
55 | 9.03 | COCCN1C[C@@H](NC(=O)Nc2c(C)c(-c3cnc(N4CC(OC)C4)nc3)nn2-c2ccccc2)[C@H](c2ccnc(F)c2)O1 [Compound I-555]

The next lines start with the compound.

Row | SMILES | pIC50
56 | CNC(=O)c1ccc(-c2nn(-c3ccccc3)c(NC(=O)N[C@@H]3CN(CCOC)O[C@H]3c3ccc(F)c(F)c3)c2C)cn1 [Compound I-458] | 9.28
57 | COCCN1C[C@@H](NC(=O)Nc2c(C)c(-c3cnc(COC)nc3)nn2-c2ccccc2)[C@H](c2ccc(F)c(F)c2)O1 [Compound I-508] | 8.96

Source: US10640495B2, “Heterocycle derivatives having TrkA inhibitory activity” (Shionogi & Co., Ltd., priority 2015, dated 2020)
